From PubChem BioAssay (NCI)
Several values for one entry are separate records, joined by “and”; a condition that tells them apart may be missing. Identical values can stand only once.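 How tested: cells in 96-well plates exposed to compound for 48 hours at five concentrations. GI50 is the concentration that inhibits growth by half. TGI is the concentration that stops growth completely.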

Legend:
Assay in all cases: inhibition of tumour cell growth, NCI panel, 48 h
ACHN renal = test system: ACHN renal
HCC-2998 colon = test system: HCC-2998 colon
HCT-116 colon = test system: HCT-116 colon
KM12 colon = test system: KM12 colon
MDA-MB-231 breast = test system: MDA-MB-231 breast
MOLT-4 leukemia = test system: MOLT-4 leukemia
NCI/ADR-RES ovarian = test system: NCI/ADR-RES ovarian
SNB-19 CNS = test system: SNB-19 CNS
UACC-257 melanoma = test system: UACC-257 melanoma
UO-31 renal = test system: UO-31 renal

Structure (SMILES)	GI50 (ACHN renal) [µM]	TGI (ACHN renal)	GI50 (HCC-2998 colon) [µM]	TGI (HCC-2998 colon)	GI50 (HCT-116 colon) [µM]	TGI (HCT-116 colon)	GI50 (KM12 colon) [µM]	TGI (KM12 colon)	GI50 (MDA-MB-231 breast) [µM]	TGI (MDA-MB-231 breast)	GI50 (MOLT-4 leukemia) [µM]	TGI (MOLT-4 leukemia)	GI50 (NCI/ADR-RES ovarian) [µM]	TGI (NCI/ADR-RES ovarian)	GI50 (SNB-19 CNS) [µM]	TGI (SNB-19 CNS)	GI50 (UACC-257 melanoma) [µM]	TGI (UACC-257 melanoma)	GI50 (UO-31 renal) [µM]	TGI (UO-31 renal)
Cc1cc(NC(=O)c2ccc(NS(=O)(=O)CCO)cc2N2CCC3(CC2)CC3)nc(N2CCC(F)(F)CC2)n1	13.5	26.4 µM	1.53	17.8 µM	11.7	26.8 µM	1.7	16.9 µM	0.188	17.6 µM	12.1	33.1 µM	0.428	16.1 µM	2.03	21.6 µM	16.8	32 µM	11.4	23.8 µM
COc1ccc(NC(=O)C(=O)C(CC2C(=O)NC(=S)NC2=O)C(=O)c2ccc3ccccc3c2)c([N+](=O)[O-])c1 (stereo unspecified)	–	> 100 µM	–	> 100 µM	–	> 100 µM	–	> 100 µM	–	> 100 µM	–	> 100 µM	–	> 100 µM	–	> 100 µM	–	> 100 µM	–	> 100 µM
COc1ccc(C(=S)c2cc(OC)c(OC)c(OC)c2)cc1OC(=O)CCl	0.0214	61.5 µM	0.0418	> 100 µM	< 0.0174	> 100 µM	< 0.01	> 100 µM	0.0253	–	< 0.0186	> 100 µM	< 0.0127	> 100 µM	< 0.0207	> 100 µM	> 100	> 100 µM	0.144	> 95.7 µM
Nc1ncc(-c2cnn(C3CCNCC3)c2)cc1-c1nc2ccccc2o1	0.86	2.71 µM	1.18	3.09 µM	0.616	2.03 µM	0.0812	1.45 µM	2.32	6.56 µM	0.361	1.32 µM	3.47	13.4 µM	3.25	10.6 µM	2.04	3.94 µM	0.714	2.35 µM
CS(=O)(=O)CCNCc1ccc(-c2ccc3ncnc(Nc4ccc(OCc5ccccc5)c(C(F)(F)F)c4)c3c2)o1	7.32	> 25 µM	4.35	8.25 µM	4.27	7.88 µM	5.48	11.3 µM	4.55	8.66 µM	5.77	17.9 µM	7.03	> 25 µM	4.79	9.37 µM	4.74	9.09 µM	5.25	17.2 µM
C[C@H]1CCC/C=C/[C@@H]2C[C@H](O)C[C@H]2[C@H](O)[C@H](S(=O)c2ccc(O)cc2)CC(=O)O1 (stereo partly specified)	0.0654	0.41 µM	0.0278	0.0951 µM	0.0256	0.0633 µM	< 0.0146	–	0.0245	0.0533 µM	< 0.0212	–	0.0174	0.0758 µM	0.187	> 100 µM	0.0222	–	0.0205	0.519 µM
COc1ccc(OC)c(/C=C/c2nnc(Nc3ccc(Cl)cc3)o2)c1	3.29	19.9 µM	> 100	> 100 µM	2.97	13.1 µM	17.4	> 100 µM	5.23	53.1 µM	> 100	> 100 µM	7.62	98.1 µM	13.8	> 100 µM	21.3	> 100 µM	3.13	12.6 µM
O=c1[nH]cnc2c(C3OC(CO)C(O)C3O)[nH]nc12 (stereo unspecified)	–	> 100 µM	–	> 100 µM	–	> 100 µM	–	> 100 µM	–	> 100 µM	–	81 µM	–	> 100 µM	–	> 100 µM	–	> 100 µM	–	> 100 µM
N=c1ccn2c(n1)OC1C(OP(=O)(O)O)C(CO)OC12 (stereo unspecified)	–	14 µM	–	96.4 µM	–	> 100 µM	–	> 100 µM	–	> 100 µM	–	> 63.3 µM	–	> 100 µM	–	> 100 µM	–	> 100 µM	–	> 100 µM
CC(=O)[O-].CC(=O)[O-].[Mn+2].c1ccc(/C(=N\Nc2ccccn2)c2ccccn2)cc1	–	4.44 µM	–	14.8 µM	–	0.739 µM	–	13.7 µM	0.0399	16.3 µM	0.00103	1.29 µM	0.0251	0.0989 µM	–	16.7 µM	0.0496	6.45 µM	–	3.88 µM
CCCCCCCCCCCCCCCCC1=CC(=O)C=C(OC)C1=O	–	> 100 µM	–	> 100 µM	–	> 100 µM	–	> 100 µM	–	> 100 µM	–	> 100 µM	–	> 100 µM	–	> 100 µM	–	> 100 µM	–	> 100 µM
O=c1ncc(-c2ccc(C(F)(F)F)cc2)c(NC2CCCCCC2)[nH]1	30.9	> 100 µM	20	35.9 µM	16.8	33.6 µM	19.9	44.3 µM	16.6	38.1 µM	17.9	43.1 µM	25.2	68.2 µM	24.2	80.8 µM	23.1	57.6 µM	14.2	38.9 µM
C/C(=C\c1ccn(-c2ccc(N)c(C(F)(F)F)c2)n1)[C@@H]1C[C@@H]2O[C@]2(C)CCC[C@H](C)[C@H](O)[C@@H](C)C(=O)C(C)(C)[C@@H](O)CC(=O)O1	0.0268	> 29.2 µM	0.0317	> 20.4 µM	0.00733	> 29.3 µM	0.00869	> 32.5 µM	0.134	> 25 µM	0.0166	19.8 µM	0.0624	8.31 µM	0.0287	> 32.5 µM	4.27	> 32.5 µM	0.055	> 32.5 µM
CCOC(=O)[C@H](CSSc1ncnc2cc[nH]c12)NC(=O)[C@@H](C)c1ccc2cc(OC)ccc2c1	2.1	> 100 µM	1.29	> 100 µM	0.474	> 100 µM	1.61	> 100 µM	1.08	> 100 µM	0.388	> 100 µM	0.687	> 100 µM	44.4	> 100 µM	3.62	> 100 µM	0.736	> 100 µM
CN(C)CC/C=C1\c2ccccc2Sc2ccc(Cl)cc21	3.61	14.4 µM and 29.6 µM	1.68	3.43 µM and 4.76 µM	2.4	6.13 µM and 24.4 µM	2.54	6.08 µM and 37.9 µM	2.12	9.32 µM and 28.3 µM	3.44	9.98 µM and 25.9 µM	2.42	8.24 µM and 30.8 µM	2.62	10.6 µM and 29.9 µM	1.49	3.11 µM and 20.6 µM	2.96	15.6 µM and 21.5 µM
C#C[C@@]1(O)[C@@H](CO)O[C@@H](n2cc(Cl)c3c(N)ncnc32)[C@@H]1O	–	–	0.186	0.532 µM	0.0221	> 100 µM	0.142	> 100 µM	0.169	0.951 µM	0.17	> 26.4 µM	0.0546	0.777 µM	0.021	0.294 µM	0.347	> 79.9 µM	0.173	1.78 µM
Cc1cc(Cl)ccc1Nc1sc(C(=O)c2cc3cc(Cl)ccc3o2)c(N)c1C#N	–	98.1 µM	–	7.24 µM	–	> 100 µM	–	> 100 µM	–	> 55 µM	–	> 100 µM	–	> 23.5 µM	–	25.1 µM	–	> 100 µM	–	> 100 µM
COc1ccc(C(=O)/C=C/c2cc3ccccc3[nH]c2=O)cc1	22.9	> 55.1 µM	17.3	31.3 µM	14.7	24.8 µM	16.5	28.7 µM	22.3	> 56.4 µM	22.2	> 100 µM	18.9	42.9 µM	23.2	> 57.5 µM	25.5	> 56.5 µM	> 100	> 100 µM
CCN(Cc1ccc(F)cc1)c1ccc(CO)c(Cl)c1	10.2	> 48.6 µM	10.3	28.3 µM	0.0661	3.02 µM	16.3	40.3 µM	15.6	51.5 µM	15.1	42.6 µM	11.6	34.4 µM	19.6	> 59.8 µM	0.0835	0.285 µM	3.02	31.5 µM
COc1cc2[nH]c(C(=O)c3cc(OC)c(OC)c(OC)c3)c(N)c2cc1C#CCO	0.515	> 100 µM	0.775	> 100 µM	0.298	> 100 µM	0.334	> 100 µM	0.629	> 100 µM	0.649	> 100 µM	2.22	32.6 µM	0.41	> 100 µM	–	–	0.476	59 µM
